Source: patent US12686692B2, “KRas G12D inhibitors” (Mirati Therapeutics, Inc., priority 2020, dated 2026)

Tests used:
[1] = molecular target: T1, KRas G12D (Homo sapiens, UniProt P01116, G12D); experiment: KRas G12D Binding Assay (TR-FRET displacement of labeled tracer); parameters: corresponding to amino acids 1:169, produced at Array BioPharma; biotin (protein is biotinylated); conditions: TR-FRET displacement of Cy5 labelled tracer, biotinylated GDP-loaded KRAS G12D (aa 1:169), 60 minute incubation at 22° C.
In short: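 Biotinylated GDP-loaded human KRAS G12D (aa 1–169) incubated with Cy5 tracer, Eu-streptavidin and compound (2% DMSO final) in 50 mM HEPES pH 7.5, 5 mM MgCl2, 0.005% Tween-20, 1 mM DTT, 60 min at 22 °C. TR-FRET ratio converted to percent of control; IC50 at 50 POC from 4-parameter logistic fit.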
Target sequence in this assay (P01116 1-169 isoform P01116-2 G12D): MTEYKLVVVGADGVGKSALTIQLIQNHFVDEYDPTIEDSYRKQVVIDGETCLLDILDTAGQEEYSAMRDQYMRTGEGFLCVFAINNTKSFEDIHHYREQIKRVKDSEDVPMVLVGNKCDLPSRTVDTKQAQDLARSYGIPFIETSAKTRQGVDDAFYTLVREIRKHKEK

[2] = molecular target: T1, KRas G12D; experiment: KRas G12D Surface Plasmon Resonance (SPR) Binding Assay; conditions: Biacore T200, biotinylated Avidin-tagged KRAS protein on SA chip, 20 C, 1:1 binding model
Procedure: This Example illustrates that exemplary compounds of the present invention bind to KRas G12D as measured by surface plasmon resonance (SPR). Briefly, 1 L of 1.05×HBS-Mg buffer (262.5 mM BioUltra Hepes, pH 7.5, 157.5 mM NaCl, 105 mM MgCl2, 0.525 mM TCEP, […] Brij-35) was prepared and filter sterilized using a 0.22 μm bottle top filter. Approximately 50 mL of 1.05×HBS-Mg buffer was removed and saved for future dilutions. A 50 mL aliquot of DMSO (Sigma Aldrich DMSO Lot. #SHBK2079) was added and continued to stir for 10 minutes, creating the final 1.0×HBS-Mg buffer (250 mM BioUltra Hepes pH 7.5, 150 mM NaCl, 100 mM MgCl2, 0.5 mM TCEP, 0.03% Brij-35). Biacore T200 instrument was primed using 1.0×HBS-Mg buffer before docking a GE Streptavidin (SA) chip and then primed two additional times prior to beginning the immobilization step. All immobilized protein mixtures were created using 3-5 mg/mL Biotinylated Avidin-tagged KRAS protein using the following immobilization settings: SA chip type, 1 flow cells per cycle, 720 second contact time, and 5 μL/min flow rate. Normalization of the detector was also performed during the immobilization step using the GE BiaNormalize solution. All compounds were diluted to 10 mM in 100% DMSO prior to being diluted 20× in 1.05× buffer. Another 10× dilution was created using 1.0× buffer prior to performing a series of 3× dilutions to create a compound concentration curve using the following assay settings: 20 C analysis temperature, General Settings=10 Hz data collection rate and multi-detection; Assay Steps=all set to LMW kinetics; Cycle Types=LMW kinetics (60s contact time, 120s dissociation time, 100 μL/min flow rate, extra wash after injection with 50% DMSO, flow path 1,2,3,4); Flow path detection=2-1, 4-3). Data evaluation was performed using the Biacore T200 Evaluation software and data fit to 1:1 binding model.
Target sequence in this assay (P01116 1-188 isoform P01116-2 G12D): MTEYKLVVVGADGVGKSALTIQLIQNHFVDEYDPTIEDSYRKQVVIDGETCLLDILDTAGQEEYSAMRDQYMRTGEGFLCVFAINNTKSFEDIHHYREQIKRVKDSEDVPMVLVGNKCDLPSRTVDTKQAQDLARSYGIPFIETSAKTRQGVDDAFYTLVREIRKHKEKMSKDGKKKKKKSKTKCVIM

[3] = system: KRas G12D-mediated Phosphorylation of ERK; experiment: Inhibition of KRas G12D-mediated Phosphorylation of ERK in AGS cells; assay type: cell-based; conditions: Homo sapiens; AGS cells expressing G12D, 3 hours, phospho-ERK normalized to GAPDH
Procedure: AGS cells (ATCC CRL-1739) expressing G12D were grown in DMEM medium supplemented with 10% fetal bovine serum, 10 mM HEPES, and Penicillin/Streptomycin. Cells were plated in tissue culture treated 96 well plates at a density of 40,000 cells/well and allowed to attach for 12-14 hours. Diluted compounds were then added in a final concentration of 0.5% DMSO. After 3 hours, the medium was removed, 150 μl of 4.0% formaldehyde was added and the plates incubated at room temperature for 20 minutes. The plates were washed with PBS, and permeabilized with 150 μL of ice cold 100% methanol for 10 minutes. Non-specific antibody binding to the plates was blocked using 100 μL Licor blocking buffer (Li-Cor Biotechnology, Lincoln NE) for 1 hour at room temperature.
The amount of phospho-ERK was determined using an antibody specific for the phosphorylated form of ERK and compared to the amount of GAPDH. Primary antibodies used for the detection were added as follows: Phospho-ERK(Cell Signaling cs-9101) diluted 1:500 and GAPDH(Millipore MAB374) diluted 1:5000 in Licor block+0.05% Tween 20. The plates were incubated for 2 hours at room temperature. The plates were washed with PBS+0.05% Tween 20.
Secondary antibodies used to visualize primary antibodies were added as follows: Anti-rabbit-680 diluted 1:1000 and Anti-mouse-800 diluted 1:1000 both in Licor block+0.05% Tween20, and were incubated for 1 hour at room temperature. The plates were washed with PBS+0.05% Tween 20. A 100 μl aliquot of PBS was added to each well and the plates were read on a Li-Cor Odyssey CLX plate reader.
The phospho-ERK(Thr202/Tyr204 signal was normalized to the GAPDH signal for each well and percent of DMSO control values were calculated. IC50 values were generated using a 4-parameter fit of the dose response curve.

Kd [2] [nM]	SMILES	IC50 [1] [nM]	IC50 [3] [nM]
1860	CN1CCC[C@H]1COc1nc2c(c(N3C[C@H]4CC[C@@H](C3)N4)n1)CCN(c1cccc3cccc(CCCO)c13)C2 [Example 79, 3-(8-(4-((1R,5S)-3,8-diazabicyclo[3.2.1]octan-3-yl)-2-(((S)-1-methylpyrrolidin-2-yl)methoxy)-5,8-dihydropyrido[3,4-d]pyrimidin-7(6H)-yl)naphthalen-1-yl)propan-1-ol]	486	–
8710	CN1CCC[C@H]1COc1nc2c(c(N3C[C@H]4CC[C@@H](C3)N4)n1)CCN(c1cccc3cccc(CCCCO)c13)C2 [Example 84, 4-(8-(4-((1R,5S)-3,8-diazabicyclo[3.2.1]octan-3-yl)-2-(((S)-1-methylpyrrolidin-2-yl)methoxy)-5,8-dihydropyrido[3,4-d]pyrimidin-7(6H)-yl)naphthalen-1-yl)butan-1-ol]	3690	–
51400	CN1CCC[C@H]1COc1nc2c(c(N3C[C@H]4CC[C@@H](C3)N4)n1)CCN(c1c(O)ccc3ccccc13)C2 [Example 78, 1-(4-((1R,5S)-3,8-diazabicyclo[3.2.1]octan-3-yl)-2-(((S)-1-methylpyrrolidin-2-yl)methoxy)-5,8-dihydropyrido[3,4-d]pyrimidin-7(6H)-yl)naphthalen-2-ol]	> 10000	–
1510	CN1CCC[C@H]1COc1nc2c(c(N3C[C@H]4CC[C@@H](C3)N4)n1)CCN(c1cccc3c1C(CC#N)CCC3)C2 (stereo partly drawn) [Example 85, 2-(8-(4-((1R,5S)-3,8-diazabicyclo[3.2.1]octan-3-yl)-2-(((S)-1-methylpyrrolidin-2-yl)methoxy)-5,8-dihydropyrido[3,4-d]pyrimidin-7(6H)-yl)-1,2,3,4-tetrahydronaphthalen-1-yl)acetonitrile]	–	–
1400	CN1CCC[C@H]1COc1nc2c(c(N3C[C@@H]4C[C@H](CO)[C@H](C3)N4)n1)CCN(c1cc(O)cc3ccccc13)C2 [Example 120, 4-(4-((1S,5R,6S)-6-(hydroxymethyl)-3,8-diazabicyclo[3.2.1]octan-3-yl)-2-(((S)-1-methylpyrrolidin-2-yl)methoxy)-5,8-dihydropyrido[3,4-d]pyrimidin-7(6H)-yl)naphthalen-2-ol]	–	–
–	CCc1cccc2cccc(N3CCc4c(nc(OC[C@]56CCCN5[C@@H](COC(=O)N(C)CCO)CC6)nc4N4C[C@H]5CC[C@@H](C4)N5)C3)c12 [Example 107, ((3R,7aR)-7a-(((4-((1R,5S)-3,8-diazabicyclo[3.2.1]octan-3-yl)-7-(8-ethylnaphthalen-1-yl)-5,6,7,8-tetrahydropyrido[3,4-d]pyrimidin-2-yl)oxy)methyl)hexahydro-1H-pyrrolizin-3-yl)methyl (2-hydroxyethyl)(methyl)carbamate]	2	408
–	CCc1cccc2cccc(N3CCc4c(nc(OCC56CCCN5C(CO)CC6)nc4N4C[C@H]5CC[C@@H](C4)N5)C3)c12 (mixture of isomers) [Example 103, (7a-(((4-((1R,5S)-3,8-diazabicyclo[3.2.1]octan-3-yl)-7-(8-ethylnaphthalen-1-yl)-5,6,7,8-tetrahydropyrido[3,4-d]pyrimidin-2-yl)oxy)methyl)hexahydro-1H-pyrrolizin-3-yl)methanol]	3.9	6220
–	CNC(=O)OCC1CCC2(COc3nc4c(c(N5C[C@H]6CC[C@@H](C5)N6)n3)CCN(c3cccc5cccc(Cl)c35)C4)CCCN12 (mixture of isomers) [Example 100, (7a-(((4-((1R,5S)-3,8-diazabicyclo[3.2.1]octan-3-yl)-7-(8-chloronaphthalen-1-yl)-5,6,7,8-tetrahydropyrido[3,4-d]pyrimidin-2-yl)oxy)methyl)hexahydro-1H-pyrrolizin-3-yl)methyl methylcarbamate]	9.7	1310
–	CCc1cccc2cccc(N3CCc4c(nc(OCC56CCCN5C(COC(=O)N5CC[C@@H](OC)C5)CC6)nc4N4C[C@H]5CC[C@@H](C4)N5)C3)c12 (stereo partly drawn) [Example 106, (7a-(((4-((1R,5S)-3,8-diazabicyclo[3.2.1]octan-3-yl)-7-(8-ethylnaphthalen-1-yl)-5,6,7,8-tetrahydropyrido[3,4-d]pyrimidin-2-yl)oxy)methyl)hexahydro-1H-pyrrolizin-3-yl)methyl (3R)-3-methoxypyrrolidine-1-carboxylate]	7.2	5110
–	CCc1cccc2cccc(N3CCc4c(nc(OCC56CCCN5[C@@H](COC(=O)NC)CC6)nc4N4CC5CCC(C4)N5)C3)c12 (stereo partly drawn) [Example 5, (7a-(((4-((1R,5S)-3,8-diazabicyclo[3.2.1]octan-3-yl)-7-(8-ethylnaphthalen-1-yl)-5,6,7,8-tetrahydropyrido[3,4-d]pyrimidin-2-yl)oxy)methyl)hexahydro-1H-pyrrolizin-3-yl)methyl methylcarbamate (trans enantiomers)]	1.6	142
–	CCc1cccc2cc(O)cc(N3CCc4c(nc(OCC56CCCN5CCC6)nc4N4C[C@H]5CC[C@@H](C4)N5)C3)c12 [Example 14, 4-(4-((1R,5S)-3,8-diazabicyclo[3.2.1]octan-3-yl)-2-((tetrahydro-1H-pyrrolizin-7a(5H)-yl)methoxy)-5,8-dihydropyrido[3,4-d]pyrimidin-7(6H)-yl)-5-ethylnaphthalen-2-ol]	1.1	21
–	CCc1cccc2cccc(N3CCc4c(nc(OC[C@]56CCCN5[C@@H](COC(=O)N5CCCC5)CC6)nc4N4C[C@H]5CC[C@@H](C4)N5)C3)c12 [Example 99, ((3R,7aR)-7a-(((4-((1R,5S)-3,8-diazabicyclo[3.2.1]octan-3-yl)-7-(8-ethylnaphthalen-1-yl)-5,6,7,8-tetrahydropyrido[3,4-d]pyrimidin-2-yl)oxy)methyl)hexahydro-1H-pyrrolizin-3-yl)methyl pyrrolidine-1-carboxylate]	2.7	559
–	CN1CCC[C@H]1COc1nc2c(c(N3C[C@H]4C[C@H](O)[C@@H](C3)N4)n1)CCN(c1cccc3cccc(Cl)c13)C2 [Example 96, (1R,5R,6S)-3-(7-(8-chloronaphthalen-1-yl)-2-(((S)-1-methylpyrrolidin-2-yl)methoxy)-5,6,7,8-tetrahydropyrido[3,4-d]pyrimidin-4-yl)-3,8-diazabicyclo[3.2.1]octan-6-ol]	331	> 16700
–	Brc1ccc(N2CCc3c(nc(OCC45CCCN4CCC5)nc3N3C[C@H]4CC[C@@H](C3)N4)C2)c2ccccc12 [Example 112, 4-((1R,5S)-3,8-diazabicyclo[3.2.1]octan-3-yl)-7-(4-bromonaphthalen-1-yl)-2-((hexahydro-1H-pyrrolizin-7a-yl)methoxy)-5,6,7,8-tetrahydropyrido[3,4-d]pyrimidine]	5460	> 16700
–	COC[C@@H]1C[C@@H]2CN(c3nc(OC[C@@H]4CCCN4C)nc4c3CCN(c3cccc5cccc(Cl)c35)C4)C[C@H]1N2 (single isomer, unassigned) [Example 93]	360	> 16700
